pKi: −log10 of the molar value. Where a name gives a salt, the structure may show the parent alone.

As a reminder, the pKi is the negative decadic logarithm of the Ki, by convention in mol/L. Lower therefore signals a high Ki.
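Note: radioligand displacement of a [3H]-labelled ligand from membranes of CHO cells stably expressing human H4 receptor, bound radioactivity counted on filters by liquid scintillation.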

Chain of human H4 receptor (Q9H3N8 whole entry): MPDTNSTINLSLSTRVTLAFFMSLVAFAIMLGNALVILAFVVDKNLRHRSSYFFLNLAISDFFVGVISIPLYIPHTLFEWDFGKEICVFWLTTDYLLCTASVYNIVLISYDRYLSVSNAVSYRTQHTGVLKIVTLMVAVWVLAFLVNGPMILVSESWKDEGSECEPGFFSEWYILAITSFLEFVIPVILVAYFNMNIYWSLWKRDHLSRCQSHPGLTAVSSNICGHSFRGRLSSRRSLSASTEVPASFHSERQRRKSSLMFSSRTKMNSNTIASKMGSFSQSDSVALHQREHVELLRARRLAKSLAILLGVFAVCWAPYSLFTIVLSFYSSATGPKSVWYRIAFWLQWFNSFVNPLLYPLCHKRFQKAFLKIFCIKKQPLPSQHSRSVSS

The assay has as its target human H4 receptor (Homo sapiens, UniProt Q9H3N8). The assay can be described thus: biochemical.
The molecule `CN1CCC(OC2c3ccccc3CCn3cc(C=CCC4CCCC4)nc32)CC1` (stereo not drawn) [Example 104, 2-(3-cyclopentylpropenyl)-4-(1-methylpiperidin-4-yloxy)-9,10-dihydro-4H-3,10a-diaza-benzo[f]azulene] had a pKi above 7.52.

Molecule `CN1CCC(OC2c3ccccc3CCn3cc(C4=CCOCC4)nc32)CC1` (stereo not drawn) [Example 106, 2-(3,6-dihydro-2H-pyran-4-yl)-4-(1-methyldpiperidin-4-yloxy)-9,10-dihydro-4H-3,10a-diaza-benzo[f]azulene] showed a pKi above 6.00.

On to `CN1CCC(OC2c3cccc(F)c3CCn3cc(-c4ccccc4)nc32)CC1` (stereo not drawn) [Example 107, 8-fluoro-4-(1-methylpiperidin-4-yloxy)-2-phenyl-9,10-dihydro-4H-3,10a-diaza-benzo[f]azulene], for which the pKi was above 6.00.

In the case of `CN1CCC(OC2c3ccccc3CCn3cc(-c4ccc(C(=O)NC5CCC(O)CC5)cc4)nc32)CC1` (stereo not drawn) [Example 108, N-(4-hydroxycyclohexyl)-4-[4-(1-methylpiperidin-4-yloxy)-9,10-dihydro-4H-3,10a-diaza-benzo[f]azulen-2-yl]-benzamide], the pKi was above 6.00.

Take `CC(C)Cc1cn2c(n1)C(OC1CCN(C)CC1)c1ccccc1CC2` (stereo not drawn) [Example 109, 2-isobutyl-4-(1-methylpiperidin-4-yloxy)-9,10-dihydro-4H-3,10a-diaza-benzo[f]azulene oxalate]: the pKi was above 6.52.

`CN1CCC(OC2c3ccccc3CCn3cc(Cc4ccccc4)nc32)CC1` (stereo not drawn) [Example 110, 2-benzyl-4-(1-methyl-piperidin-4-yloxy)-9,10-dihydro-4H-3,10a-diaza-benzo[f]azulene oxalate] had a pKi above 6.52.

Consider `CN1CCC(OC2c3ccccc3CCn3cc(C=Cc4cccs4)nc32)CC1` (stereo not drawn) [Example 111, 4-(1-methylpiperidin-4-yloxy)-2-(2-thiophen-2-ylvinyl)-9,10-dihydro-4H-3,10a-diaza-benzo[f]azulene], for which the pKi was above 7.52.

The molecule `CN(C)Cc1ccc(-c2cn3c(n2)C(OC2CCN(C)CC2)c2ccccc2CC3)cc1` (stereo not drawn) [Example 113, dimethyl-{4-[4-(1-methylpiperidin-4-yloxy)-9,10-dihydro-4H-3,10a-diaza-benzo[f]azulen-2-yl]-benzyl}-amine] showed a pKi above 6.52.

In the case of `CN1CCC(OC2c3ccccc3CCn3cc(SC4CCN(C(=O)OC(C)(C)C)CC4)nc32)CC1` (stereo not drawn) [Example 114, 4-[4-(1-methylpiperidin-4-yloxy)-9,10-dihydro-4H-3,10a-diaza-benzo[f]azulen-2-ylsulfanyl]-piperidine-1-carboxylic acid tert-butyl ester], the pKi was above 6.52.

The molecule `CN1CCC(OC2c3ccccc3CCn3cc(-c4ccc(CNC(=O)OC(C)(C)C)cc4)nc32)CC1` (stereo not drawn) [Example 115, {4-[4-(1-methylpiperidin-4-yloxy)-9,10-dihydro-4H-3,10a-diaza-benzo[f]azulen-2-yl]-benzyl}-carbamic acid tert-butyl ester] gave a pKi above 6.52.

`CCOC(=O)c1c(C)nc2n1CCc1ccccc1C2OC1CCN(C)CC1` (stereo not drawn) [Example 116, 2-methyl-4-(1-methylpiperidin-4-yloxy)-9,10-dihydro-4H-3,10a-diazabenzo[f]azulene-1-carboxylic acid ethyl ester] had a pKi above 6.52.

`CN1CCC(OC2c3ccccc3CCn3cc(C(C)(C)c4ccc(Cl)cc4)nc32)CC1` (stereo not drawn) [Example 117, 2-[1-(4-chlorophenyl)-1-methyl-ethyl]-4-(1-methylpiperidin-4-yloxy)-9,10-dihydro-4H-3,10a-diaza-benzo[f]azulene oxalate] had a pKi above 6.52.

In the case of `CCOC(=O)c1nc2n(c1C)CCc1ccccc1C2OC1CCN(C)CC1` (stereo not drawn) [Example 118, 1-methyl-4-(1-methylpiperidin-4-yloxy)-9,10-dihydro-4H-3,10a-diaza-benzo[f]azulene-2-carboxylic acid ethyl ester], the pKi is above 6.00.

The molecule `Cc1nc2n(c1-c1ccccc1)CCc1ccccc1C2OC1CCN(C)CC1` (stereo not drawn) [Example 123, 2-methyl-4-(1-methylpiperidin-4-yloxy)-1-phenyl-9,10-dihydro-4H-3,10a-diaza-benzo[f]azulene oxalate] had a pKi above 6.52.

Regarding `CN1CCC(OC2c3ccccc3CCn3cc(C=CCOCc4ccccc4)nc32)CC1` (stereo not drawn) [Example 124, 2-(3-benzyloxypropenyl)-4-(1-methylpiperidin-4-yloxy)-9,10-dihydro-4H-3,10a-diaza-benzo[f]azulene oxalate], the pKi is above 6.52.

For the molecule `CN1CCC(OC2c3ccccc3CCn3cc(CCc4cccs4)nc32)CC1` (stereo not drawn) [Example 126, 4-(1-methylpiperidin-4-yloxy)-2-(2-thiophen-2-ylethyl)-9,10-dihydro-4H-3,10a-diaza-benzo[f]azulene oxalate], the pKi was above 6.52.

In turn, `CN1CCC(OC2c3ccccc3CCn3cc(CCCOCc4ccccc4)nc32)CC1` (stereo not drawn) [Example 128, 2-(3-benzyloxypropyl)-4-(1-methylpiperidin-4-yloxy)-9,10-dihydro-4H-3,10a-diaza-benzo[f]azulene oxalate] gave a pKi above 6.52.

The molecule `Cc1c(-c2ccc(N3CCN(C)C3=O)cc2)nc2n1CCc1ccccc1C2OC1CCN(C)CC1` (stereo not drawn) [Example 132, 1-methyl-3-{4-[1-methyl-4-(1-methylpiperidin-4-yloxy)-9,10-dihydro-4H-3,10a-diaza-benzo[f]azulen-2-yl]-phenyl}-imidazolidin-2-one] had a pKi above 6.52.

On to `CN1CCC(OC2c3ccccc3CCn3cc(-c4ccc(CNC(=O)C(C)(C)C)cc4)nc32)CC1` (stereo not drawn) [Example 136, 2,2-dimethyl-N-{4-[4-(1-methylpiperidin-4-yloxy)-9,10-dihydro-4H-3,10a-diaza-benzo[f]azulen-2-yl]-benzyl}-propionamide], for which the pKi was above 6.52.

For the molecule `COCCC(=O)NCc1ccc(-c2cn3c(n2)C(OC2CCN(C)CC2)c2ccccc2CC3)cc1` (stereo not drawn) [Example 138, 3-methoxy-N-{4-[4-(1-methylpiperidin-4-yloxy)-9,10-dihydro-4H-3,10a-diaza-benzo[f]azulen-2-yl]-benzyl}-propionamide], the pKi was above 6.00.

`CN1CCC(OC2c3ccccc3CCn3c2nc(-c2ccc(NC(=O)OC(C)(C)C)cc2)c3Cl)CC1` (stereo not drawn) [Example 141, {4-[1-chloro-4-(1-methylpiperidin-4-yloxy)-9,10-dihydro-4H-3,10a-diaza-benzo[f]azulen-2-yl]-phenyl}-carbamic acid tert-butyl ester] had a pKi above 7.52.

With `Cc1c(-c2ccc(CCS(C)(=O)=O)cc2)nc2n1CCc1ccccc1C2OC1CCN(C)CC1` (stereo not drawn) [Example 159, 2-[4-(2-methanesulfonylethyl)-phenyl]-1-methyl-4-(1-methylpiperidin-4-yloxy)-9,10-dihydro-4H-3,10a-diaza-benzo[f]azulene], the pKi is above 7.52.

Regarding `Cc1c(-c2ccc(SCCNC(=O)OC(C)(C)C)cc2)nc2n1CCc1ccccc1C2OC1CCN(C)CC1` (stereo not drawn) [Example 160, (2-{4-[1-methyl-4-(1-methylpiperidin-4-yloxy)-9,10-dihydro-4H-3,10a-diaza-benzo[f]azulen-2-yl]-phenylsulfanyl}-ethyl)-carbamic acid tert-butyl ester oxalate], the pKi is above 7.52.

In the case of `Cc1c(-c2ccc(N3CCCCC3=O)cc2)nc2n1CCc1ccccc1C2OC1CCN(C)CC1` (stereo not drawn) [Example 162, 1-{4-[1-methyl-4-(1-methylpiperidin-4-yloxy)-9,10-dihydro-4H-3,10a-diaza-benzo[f]azulen-2-yl]-phenyl}-piperidin-2-one oxalate], the pKi is above 6.52.
